Laboratory results from PubChem BioAssay AID1996.
Values after ≈ are worked out from the molar mass of the structure shown.

conditions: buffer; pH 7.4; 200.0 µM

SMILES	solubility kinetic
O=C(O)c1ccc2c(=O)n3c(nc2c1)/C(=C/c1cccc(O)c1)CC3	> 50.1 µg/mL
O=C(Nc1cccc(C(F)(F)F)c1)OCc1ccncc1	12.4 µg/mL (≈ 41.9 µM)
CCCCCCC(=O)N(O)C1CC(=O)N(c2ccc(Cl)cc2)C1=O (stereo not drawn)	43.9 µg/mL (≈ 124 µM)
COc1ccccc1CNC(=O)CN1C(=O)NC2(CCCCCC2)C1=O	> 53.9 µg/mL
Cc1ccc(/C=C(\C#N)C(=O)Nc2cccc(C)n2)cc1	< 0.2 µg/mL
O=C1OCCC1Sc1nnc(-c2ccc(Cl)cc2Cl)o1 (stereo not drawn)	> 49.7 µg/mL
COC(=O)c1cc(C(=O)NC(C)(C)CC(C)(C)C)cc([N+](=O)[O-])c1	17.8 µg/mL (≈ 52.9 µM)
O=C(CCCCC(=O)N1CCOCCOCCOCC1)OCc1ccccc1	56.1 µg/mL (≈ 143 µM)
O=C(c1ccccc1O)N1CCOCC1	30.5 µg/mL (≈ 147 µM)
COc1cccc(C(=O)NCC(=O)OC(C)C(=O)NC23CC4CC(CC(C4)C2)C3)c1 (stereo not drawn)	> 62.2 µg/mL
Cc1ccc(CCN2CC(C(=O)NCCC(C)C)CC2=O)cc1 (stereo not drawn)	45.7 µg/mL (≈ 144 µM)
CCc1cccc(CC)c1-n1c(SCC(=O)N2CCc3ccccc32)nc(O)cc1=O	60 µg/mL (≈ 138 µM)
NC(=O)COC(=O)c1ccc(S(=O)(=O)NCc2ccco2)cc1	> 50.8 µg/mL
O=C(O)Cc1ccc(S(=O)(=O)Nc2ccccc2C(=O)O)cc1	43.4 µg/mL (≈ 129 µM)
CCOC(=O)c1cccc(C(=O)Nc2nc3ccc(OC)cc3s2)n1	< 0.3 µg/mL
Cc1cccn2cc(CCNC(=O)Cc3cccs3)nc12	> 44.9 µg/mL
Cc1ccc(S(=O)(=O)N2CCCCC2c2cccnc2)c(C)c1C (stereo not drawn)	45.9 µg/mL (≈ 133 µM)
O=C(Oc1ccc(C(=S)N2CCOCC2)cc1)c1ccccc1F	36.6 µg/mL (≈ 106 µM)
Cc1ccn2c(C(=O)NN=C3CCCCCCC3)c(C)nc2c1	> 46.9 µg/mL
Cl.O=C(c1cc(-c2cccc3ccccc23)nc2ccccc12)N1CCN(CCO)CC1	> 67.2 µg/mL
CCCCCCCC(=O)NC1=NC(=O)C(C)(C)S1	5 µg/mL (≈ 18.5 µM)
O=C(NCCCN1CCCC1=O)C1CCCO1 (stereo not drawn)	35.2 µg/mL (≈ 146 µM)
COc1ccccc1CCC(=O)OCC(=O)NCc1ccc(OC)c(OC)c1	> 58.1 µg/mL
O=C(COC(=O)[C@@H]1CCCN1C(=O)c1cccs1)Nc1ccc(Br)cc1	2.4 µg/mL (≈ 5.49 µM)

SMILES	solubility kinetic
Cc1noc(C)c1COc1ccc(C(=O)N2CCC(C(N)=O)CC2)cc1	> 53.6 µg/mL
CNC(=S)c1cc(C(C)(C)C)c(O)c(C(C)(C)C)c1	13.4 µg/mL (≈ 48 µM)
COCC(C)NC(=S)NCCc1ccc(Cl)cc1Cl (stereo not drawn)	> 48.2 µg/mL
Cn1c(=O)c(C(N)=S)cn(-c2ccccc2)c1=O	25.5 µg/mL (≈ 97.6 µM)
CCC(C)c1ccc(NC(=O)NCc2cccnc2)cc1 (stereo not drawn)	41 µg/mL (≈ 145 µM)
Cc1ccc(S(=O)(=O)N2CCN(C(=O)C3CCCO3)CC2)cc1 (stereo not drawn)	49.8 µg/mL (≈ 147 µM)
Cc1ccc(NC(=O)C(C)OC(=O)CSc2ccccc2)cc1 (stereo not drawn)	> 49.4 µg/mL
CC(=O)C(/C=N/c1ncc(C(F)(F)F)cc1Cl)=C(\C)O	1.3 µg/mL (≈ 4.24 µM)
OC(CNCCc1c[nH]c2ccccc12)c1ccccc1 (stereo not drawn)	37 µg/mL (≈ 132 µM)
Cc1ccccc1SCC(=O)OCC(=O)N1CC(=O)Nc2ccccc21	11.6 µg/mL (≈ 31.3 µM)
CCOc1ccc(C(=O)N2CCc3ccccc32)cc1OCC	40.5 µg/mL (≈ 130 µM)
COc1ccccc1C(=O)NCCC(=O)NCCOc1ccccc1	> 51.4 µg/mL
CCn1ccc(C(=O)NCc2ccc3c(c2)OCO3)n1	> 41 µg/mL
COc1ccc(-c2noc(CN(C(=O)c3ccoc3C)C(C)C)n2)cc1	38.7 µg/mL (≈ 109 µM)
Cc1cccc(-n2c(=O)c3c(C)c(C)sc3n(CC(N)=O)c2=O)c1	> 51.5 µg/mL
COCC(=O)Nc1ccc(N2CCN(c3ccccc3)CC2)c(F)c1	2 µg/mL (≈ 5.82 µM)
Cc1cc(C)nc(SCc2ccc(Cl)cc2)n1	0.6 µg/mL (≈ 2.27 µM)
O=C(NCCc1ccc(Cl)cc1)c1ccc2nc[nH]c2c1	> 45 µg/mL
O=C(CN1C(=O)NC2(CCOc3ccccc32)C1=O)c1ccc(Cl)cc1 (stereo not drawn)	1.3 µg/mL (≈ 3.51 µM)
O=C(Cc1cccc2ccccc12)Nc1ccccc1	1.9 µg/mL (≈ 7.27 µM)
O=C(NCC1CCCCC1)c1cccc(Br)c1	2.2 µg/mL (≈ 7.43 µM)
O=C(NCc1ccco1)c1ccc(Cl)nc1	> 35.5 µg/mL
COc1ccc(OC)c(NC(=O)c2cccc(NC(=O)c3ccccc3)c2)c1	9.8 µg/mL (≈ 26 µM)
O=C(Cc1cccc2ccccc12)Nc1cc(Cl)ccc1C(=O)O	> 51 µg/mL

SMILES	solubility kinetic
CCOC(=O)C1=C(C)NC(C)=C(C(=O)OCC)C1c1cccc(C)n1	5.1 µg/mL (≈ 14.8 µM)
O=C(NCc1ccccc1F)c1cccc(S(=O)(=O)N2CCCCC2)c1	5.8 µg/mL (≈ 15.4 µM)
CC(=O)Nc1nc(C)c(Oc2cccc(C(F)(F)F)c2)c(=O)[nH]1	45.1 µg/mL (≈ 138 µM)
O=C1CCC(C(=O)OCc2nnc(-c3ccccc3)o2)=NN1	> 45 µg/mL
O=C(CNS(=O)(=O)c1cccc(C(F)(F)F)c1)NC1CCCCCC1	48.7 µg/mL (≈ 129 µM)
Cc1cccc(C)c1NC(=O)COC(=O)/C=C/c1ccc(S(=O)(=O)N2CCOCC2)cc1	2.2 µg/mL (≈ 4.8 µM)
COc1ccc2[nH]c(C(=O)Nc3ncc(C)cc3Br)cc2c1	6.1 µg/mL (≈ 16.9 µM)
O=C(O)c1cccc(S(=O)(=O)N2CCN(c3ccccn3)CC2)c1	> 52.1 µg/mL
CC(Sc1cccc[n+]1[O-])C(=O)NC1CCCCC1C (stereo not drawn)	> 44.2 µg/mL
NC(=O)c1sc2nc3c(cc2c1N)CCCCCC3	22.3 µg/mL (≈ 81 µM)
C=CCNC(=O)c1cnn(-c2ccccc2)c1-c1ccccc1	> 45.5 µg/mL
O=[N+]([O-])c1ccccc1Oc1ncccc1[N+](=O)[O-]	27.3 µg/mL (≈ 105 µM)
CC(C)[C@H](NC(=O)NCc1ccc(F)cc1)C(=O)O	> 40.2 µg/mL
CC1CN(C(=O)COC(=O)c2cccc(S(=O)(=O)N3CCc4ccccc43)c2)CC(C)O1 (stereo not drawn)	15.3 µg/mL (≈ 33.4 µM)
CCOc1ccc(C(=O)N2CCn3c2nc2ccccc23)cc1	6.4 µg/mL (≈ 20.8 µM)
S=C(Nc1ccccc1Cl)N1CCC(c2ccccc2)C1 (stereo not drawn)	17.9 µg/mL (≈ 56.5 µM)
CC1CCCCN1C(=O)COC(=O)Cc1c[nH]c2ccccc12 (stereo not drawn)	> 47.2 µg/mL
CCn1cc(CCC(=O)NCc2ccccc2OC)c2ccccc21	30.5 µg/mL (≈ 90.7 µM)
S=C1CSc2ccccc2N1	25.1 µg/mL (≈ 138 µM)
O=C(Nc1cccc(F)c1)c1ccc(Cn2cc([N+](=O)[O-])cn2)o1	> 49.5 µg/mL
Cc1cc(/C(N)=N/OC(=O)c2ccc(Cl)cc2)no1	1.6 µg/mL (≈ 5.72 µM)
C=CCn1c(NCc2ccco2)nc2ccccc21	> 38 µg/mL
O=c1c(-c2ccccc2)cnc2n1CCS2	> 34.5 µg/mL
COc1ccc(-c2nc(C=O)cs2)cc1	26.2 µg/mL (≈ 119 µM)

SMILES	solubility kinetic
CNC(=O)Nc1cccc2cccnc12	> 30.2 µg/mL
CCN(CC)C(=N)N1c2ccccc2CCC1C.Cl (stereo not drawn)	40.8 µg/mL
COC(=O)Cc1ccc(Oc2ncc(C(F)(F)F)cc2Cl)cc1	8.5 µg/mL (≈ 24.6 µM)
CCOc1ncccc1C(=O)OCC(=O)Nc1cc(C(C)(C)C)ccc1OC	1.5 µg/mL (≈ 3.88 µM)
Cc1cc(C)nc(SCC(=O)Nc2ccnc3ccccc23)n1	6.6 µg/mL (≈ 20.3 µM)
Cc1ccc(NC(=O)C(c2ccccc2)c2ccccc2)nc1	11.5 µg/mL (≈ 38 µM)
COc1ccc(NC(=O)C2C3CCC(O3)C2C(=O)O)c(C)c1 (stereo not drawn)	45.4 µg/mL (≈ 149 µM)
O=[N+]([O-])c1cc(S(=O)(=O)NC2=NCCCCC2)ccc1Cl	39 µg/mL (≈ 118 µM)
C=CCOc1ccc(C2NC(=O)c3ccccc3O2)cc1OCC (stereo not drawn)	2.6 µg/mL (≈ 7.99 µM)
COc1cc(CCC(=O)NCC2CCCO2)cc(OC)c1OC (stereo not drawn)	44 µg/mL (≈ 136 µM)
CCc1ccc(N2CC(C(=O)OCC(=O)NC3CC3)CC2=O)cc1 (stereo not drawn)	> 49.6 µg/mL
COc1cccc(Oc2cc(Cl)nc(N)n2)c1	15 µg/mL (≈ 59.6 µM)
CC(CNC(=O)c1ccccc1Cl)NC(=O)c1ccccc1Cl (stereo not drawn)	> 52.7 µg/mL
Cl.O=C(CN1CCOCC1)NCc1ccc(F)cc1	> 43.3 µg/mL
O=C(c1ccc([N+](=O)[O-])cc1[N+](=O)[O-])N1CCc2ccccc21	4.2 µg/mL (≈ 13.4 µM)
COc1ccccc1C(=O)Nc1c(-c2ccccc2)nc2ccccn12	10 µg/mL (≈ 29.1 µM)
O=C(CSc1nc2c(c(=O)[nH]1)CCC2)Nc1ccccc1Cl	8.8 µg/mL (≈ 26.2 µM)
O=C(c1ccccc1[N+](=O)[O-])N1CCC2(CC1)OCCO2	> 43.8 µg/mL
CC1CCCC(NC(=O)COC(=O)CCC(=O)c2ccc(F)cc2)C1C (stereo not drawn)	11.5 µg/mL (≈ 31.6 µM)
CN(C)CCCNCCCNC(=O)/C(=N\O)c1ccccc1	> 46 µg/mL
N/C(=N\OC(=O)CC1CCCCC1)c1ccc(Cl)cc1	0.9 µg/mL (≈ 3.05 µM)
O=C(c1ccc(Br)cc1)N1CCN(Cc2ccccc2)CC1	38.9 µg/mL (≈ 108 µM)
O=C(c1ccccc1F)N1CCN=C1c1ccccc1	36.2 µg/mL (≈ 135 µM)
N#Cc1ccc(C(=O)OCC(=O)N2CCCCCC2)cc1	> 42.9 µg/mL

SMILES	solubility kinetic
COc1ccc(C2(CNC(=O)c3ccc(N)cc3)CCCC2)cc1	26.7 µg/mL (≈ 82.3 µM)
CC(=O)c1csc(-c2ccccc2)n1	16.6 µg/mL (≈ 81.7 µM)
C=CCc1c(C)nc(SCc2ccccc2)[nH]c1=O	10.4 µg/mL (≈ 38.2 µM)
O=C(Nc1cccc(Cl)c1N1CCCC1)c1ccco1	1.2 µg/mL (≈ 4.13 µM)
O=C(O)C1CCN(S(=O)(=O)c2ccc(Cl)s2)CC1	> 46.5 µg/mL
O=C(NCCN1CCOCC1)C(=O)c1c[nH]c2ccccc12	> 45.2 µg/mL
CC1(C)CC(=O)c2cnc(N3CCc4ccccc43)nc2C1	0.4 µg/mL (≈ 1.36 µM)
CCN(CC)CCNS(=O)(=O)c1ccc2c3c(cccc13)C(=O)N2	> 52.1 µg/mL
CCOc1ccc(Nc2ccc(N3C(=O)CCC3=O)cc2[N+](=O)[O-])cc1	2.3 µg/mL (≈ 6.47 µM)
CCOC(=O)c1sc(NC(=O)c2sc(C)nc2C)nc1C	8.7 µg/mL (≈ 26.7 µM)
COc1ccc(/C=C/C(=O)N2CCCC2)cc1OC	> 39.2 µg/mL
Cc1cccc(Oc2c([N+](=O)[O-])c(=O)n(C)c3ccccc23)c1	6.6 µg/mL (≈ 21.3 µM)
CC(=O)Nc1ccc2nc(NC(=O)CN3CCOCC3)sc2c1	> 50.2 µg/mL
O=C(Nc1ccc(Cl)cc1)N1CCN(Cc2ccc3c(c2)OCO3)CC1	5.7 µg/mL (≈ 15.2 µM)
O=C(O)CSc1cn(Cc2ccccc2)c2ccccc12	> 44.6 µg/mL
N#C/C(=C\Nc1ccc(Cl)cc1)S(=O)(=O)c1ccccn1	8.7 µg/mL (≈ 27.2 µM)
O=C1CC(c2ccccc2)CC(=O)C1=CN1CCCC1 (stereo not drawn)	> 40.4 µg/mL
CC(C)NC(=O)c1ccc(COc2cc(Cl)ccc2Cl)o1	2.8 µg/mL (≈ 8.53 µM)
Cc1ccc2nc(SCC(=O)Nc3ncccn3)[nH]c2c1	> 44.9 µg/mL
Cn1c(COc2ccccc2Br)nc2ccccc21	1.4 µg/mL (≈ 4.41 µM)
CCOc1ccc(N2C(=O)/C(=C/c3ccccn3)SC2=S)cc1	< 0.4 µg/mL
CCOc1ccccc1NC(=O)C1CCN(S(C)(=O)=O)CC1	> 49 µg/mL
